≈ marks a conversion by molar mass, not a printed value.
Key:
S. aureus Newman [1] = assay: fitness (endpoint OD595 vs no drug) (fraction); higher = more growth
Method in brief: (§1)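 With the first reading as background, OD595 was measured every 30 min for 14 h in 384-well plates kept at 37 °C and inoculated at OD595 0.01. TSB, LB Lennox or CY was the medium. Fitness is the optical density at the transition into stationary phase divided by the robust mean of no-drug control wells, with a cap of 1.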

S. aureus DSM 20231 [2] = assay: as above
Method in brief: as §1

B. subtilis 168 [3] = assay: as above
Method in brief: as §1

S. pneumoniae D39V [4] = assay: as above
Method in brief: as §1

S. aureus Newman [5] = test system: S. aureus Newman
S. aureus DSM 20231 [6] = test system: S. aureus DSM 20231
B. subtilis 168 [7] = test system: B. subtilis 168
S. pneumoniae D39V [8] = test system: S. pneumoniae D39V
S. aureus Newman [9] = assay: Bliss interaction score (quartile over a dose matrix) (fitness difference); higher = more antagonism (negative = synergy)
Method in brief: (§2)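 Quartiles summarise the Bliss score over technical, biological and donor/recipient replicates, where the score is observed minus expected fitness under a product model. Expected fitness uses single-drug values inferred from combination data. Fitness is OD595 at entry into stationary phase over the plate's robust no-drug mean, capped at 1.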

S. aureus DSM 20231 [10] = assay: as above
Method in brief: as §2

B. subtilis 168 [11] = assay: as above
Method in brief: as §2

S. pneumoniae D39V [12] = assay: as above
Method in brief: as §2
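Throughout, for Bliss interaction score (quartile over a dose matrix): first quartile when negative (synergy) and third quartile when positive (antagonism).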

CC[C@H]1OC(=O)[C@H](C)[C@@H](O[C@H]2C[C@@](C)(OC)[C@@H](O)[C@H](C)O2)[C@H](C)[C@@H](O[C@@H]2O[C@H](C)C[C@H](N(C)C)[C@H]2O)[C@](C)(O)C[C@@H](C)CN(C)[C@H](C)[C@@H](O)[C@]1(C)O [Azithromycin]
fitness
Conditions | 0.125 µg/mL | 0.25 µg/mL | 0.5 µg/mL | 1 µg/mL | 2 µg/mL
B. subtilis 168 [3] | – | 0.891 | 0.869 | 0.699 | 0.0641
S. aureus DSM 20231 [2] | 0.994 | 0.914 | 0.508 | 0.834 | –
S. aureus Newman [1] | 0.93 | 0.901 | 0.706 | – | –
S. pneumoniae D39V [4] | – | 0.524 | 0.323 | 0.096 | –

Conditions | MIC [µg/mL]
B. subtilis 168 [7] | 2 (≈ 2.67 µM)
S. aureus DSM 20231 [6] | 0.556 (≈ 0.742 µM)
S. aureus Newman [5] | 0.5 (≈ 0.668 µM)
S. pneumoniae D39V [8] | 2 (≈ 2.67 µM)

CC1=C(C(=O)O)N2C(=O)[C@@H](NC(=O)[C@H](N)c3ccccc3)[C@H]2SC1 [Cephalexin]
fitness
Conditions | 0.125 µg/mL | 0.25 µg/mL | 0.5 µg/mL | 1 µg/mL | 2 µg/mL | 4 µg/mL
B. subtilis 168 [3] | 0.925 | 0.917 | 0.937 | 0.939 | – | –
S. aureus Newman [1] | – | 0.987 | ≥ 1 | ≥ 1 | ≥ 1 | –
S. pneumoniae D39V [4] | – | – | – | 0.649 | 0.29 | 0.0479

Conditions | MIC [µg/mL]
S. aureus DSM 20231 [6] | 4 (≈ 11.5 µM)
S. aureus Newman [5] | 4 (≈ 11.5 µM)
S. pneumoniae D39V [8] | 4 (≈ 11.5 µM)

O=C(O)[C@H]1/C(=C/CO)O[C@@H]2CC(=O)N21 [Clavulanic acid]
fitness
Conditions | 0.5 µg/mL | 1 µg/mL | 1.5 µg/mL | 2 µg/mL | 3 µg/mL | 6 µg/mL
B. subtilis 168 [3] | – | – | 0.899 | – | 0.887 | 0.769
S. pneumoniae D39V [4] | 0.966 | 0.939 | – | 0.867 | – | –

Conditions | MIC [µg/mL]
B. subtilis 168 [7] | 8 (≈ 40.2 µM)
S. aureus DSM 20231 [6] | 0.5 (≈ 2.51 µM)
S. aureus Newman [5] | 0.5 (≈ 2.51 µM)
S. pneumoniae D39V [8] | 2 (≈ 10 µM)

CNC(C)C1CCC(N)C(OC2C(N)CC(N)C(OC3OCC(C)(O)C(NC)C3O)C2O)O1 (stereo unspecified) [Gentamicin]
main component drawn
Conditions | fitness
B. subtilis 168 [3], 0.0625 µg/mL | 0.887
B. subtilis 168 [3], 0.125 µg/mL | 0.131
B. subtilis 168 [3], 0.25 µg/mL | 0.0542
S. aureus DSM 20231 [2], 0.5 µg/mL | ≥ 1
S. aureus DSM 20231 [2], 1 µg/mL | ≥ 1
S. aureus DSM 20231 [2], 2 µg/mL | 0.984
S. aureus DSM 20231 [2], 4 µg/mL | 0.129
S. aureus Newman [1], 0.375 µg/mL | ≥ 1
S. aureus Newman [1], 0.5 µg/mL | 0.996
S. aureus Newman [1], 0.75 µg/mL | ≥ 1
S. aureus Newman [1], 1 µg/mL | 0.992
S. aureus Newman [1], 1.5 µg/mL | 0.583
S. aureus Newman [1], 2 µg/mL | 0.999
S. aureus Newman [1], 4 µg/mL | 0.302
S. pneumoniae D39V [4], 2 µg/mL | 1
S. pneumoniae D39V [4], 4 µg/mL | 0.986
S. pneumoniae D39V [4], 8 µg/mL | 0.962

main component drawn
Conditions | MIC [µg/mL]
B. subtilis 168 [7] | 0.25 (≈ 0.523 µM)
S. aureus DSM 20231 [6] | 2 (≈ 4.19 µM)
S. aureus Newman [5] | 2 (≈ 4.19 µM)
S. pneumoniae D39V [8] | 18 (≈ 37.7 µM)

Clc1ccc(COC(Cn2ccnc2)c2ccc(Cl)cc2Cl)c(Cl)c1 (stereo unspecified) [Miconazole]
S. pneumoniae D39V [4]
Conditions | fitness
1.25 µg/mL | 0.907
2.5 µg/mL | 0.893
5 µg/mL | 0.926

Conditions | MIC [µg/mL]
B. subtilis 168 [7] | 5 (≈ 12 µM)
S. aureus DSM 20231 [6] | 5 (≈ 12 µM)
S. aureus Newman [5] | 3 (≈ 7.21 µM)
S. pneumoniae D39V [8] | 10 (≈ 24 µM)

Cc1onc(-c2ccccc2)c1C(=O)N[C@@H]1C(=O)N2[C@@H]1SC(C)(C)[C@@H]2C(=O)O [Oxacillin]
Conditions | fitness
B. subtilis 168 [3], 0.002 µg/mL | 0.925
B. subtilis 168 [3], 0.004 µg/mL | 0.936
B. subtilis 168 [3], 0.0078 µg/mL | 0.941
B. subtilis 168 [3], 0.008 µg/mL | 0.962
B. subtilis 168 [3], 0.0155 µg/mL | 0.952
B. subtilis 168 [3], 0.031 µg/mL | 0.902
S. aureus DSM 20231 [2], 0.0156 µg/mL | 0.972
S. aureus DSM 20231 [2], 0.0312 µg/mL | 0.889
S. aureus DSM 20231 [2], 0.0625 µg/mL | 0.621
S. aureus Newman [1], 0.0156 µg/mL | 0.843
S. aureus Newman [1], 0.0312 µg/mL | 0.759
S. aureus Newman [1], 0.0625 µg/mL | 0.608
S. pneumoniae D39V [4], 0.005 µg/mL | ≥ 1
S. pneumoniae D39V [4], 0.01 µg/mL | 0.996
S. pneumoniae D39V [4], 0.02 µg/mL | 0.986
S. pneumoniae D39V [4], 0.04 µg/mL | 0.515

Conditions | MIC [µg/mL]
S. aureus DSM 20231 [6] | 0.069 (≈ 0.172 µM)
S. aureus Newman [5] | 0.069 (≈ 0.172 µM)
S. pneumoniae D39V [8] | 0.031 (≈ 0.0772 µM)

C[n+]1ccc(-c2cc[n+](C)cc2)cc1 [Paraquat]
fitness
Conditions | 1.25 µg/mL | 1.5 µg/mL | 2.5 µg/mL | 3 µg/mL | 5 µg/mL | 6 µg/mL
B. subtilis 168 [3] | 0.912 | – | 0.899 | – | 0.848 | –
S. aureus DSM 20231 [2] | ≥ 1 | – | 0.99 | – | 0.988 | –
S. aureus Newman [1] | 0.986 | – | 0.944 | – | 0.94 | –
S. pneumoniae D39V [4] | – | 0.992 | – | 0.993 | – | 0.965

Conditions | MIC [µg/mL]
B. subtilis 168 [7] | 50
S. aureus DSM 20231 [6] | 50
S. aureus Newman [5] | 50
S. pneumoniae D39V [8] | 10

C[n+]1ccc(-c2cc[n+](C)cc2)cc1 [Paraquat] + COc1ccc(C[C@H](N)C(=O)N[C@H]2[C@@H](O)[C@H](n3cnc4c(N(C)C)ncnc43)O[C@@H]2CO)cc1 [Puromycin]
fitness
Conditions | first compound 1.25 µg/mL | first compound 1.5 µg/mL | first compound 2.5 µg/mL | first compound 3 µg/mL | first compound 5 µg/mL | first compound 6 µg/mL
B. subtilis 168 [3], partner 0.39 µg/mL | 0.957 | – | 0.913 | – | 0.792 | –
B. subtilis 168 [3], partner 0.78 µg/mL | 0.924 | – | 0.894 | – | 0.779 | –
B. subtilis 168 [3], partner 1.56 µg/mL | 0.883 | – | 0.858 | – | 0.747 | –
S. aureus DSM 20231 [2], partner 0.39 µg/mL | 0.978 | – | 0.98 | – | 0.977 | –
S. aureus DSM 20231 [2], partner 0.78 µg/mL | 0.97 | – | ≥ 1 | – | 0.983 | –
S. aureus DSM 20231 [2], partner 1.56 µg/mL | 0.964 | – | ≥ 1 | – | 0.989 | –
S. aureus Newman [1], partner 0.39 µg/mL | 0.937 | – | 0.965 | – | 0.979 | –
S. aureus Newman [1], partner 0.78 µg/mL | ≥ 1 | – | 0.99 | – | 0.981 | –
S. aureus Newman [1], partner 1.56 µg/mL | ≥ 1 | – | 0.971 | – | 0.994 | –
S. pneumoniae D39V [4], partner 1 µg/mL | – | 0.996 | – | ≥ 1 | – | ≥ 1
S. pneumoniae D39V [4], partner 2 µg/mL | – | 0.973 | – | 0.982 | – | 0.966
S. pneumoniae D39V [4], partner 4 µg/mL | – | 0.852 | – | 0.856 | – | 0.861

fitness, S. aureus DSM 20231 [2], one replicate
Conditions | first compound 1.25 µg/mL | first compound 2.5 µg/mL | first compound 5 µg/mL
partner 3.12 µg/mL | 0.926 | 0.976 | 0.965
partner 6.24 µg/mL | 0.732 | 0.703 | 0.689

Conditions | Bliss interaction score
B. subtilis 168 [11] | 0.0238
S. aureus DSM 20231 [10] | 0.0717
S. aureus Newman [9] | 0.0892
S. pneumoniae D39V [12] | 0.135
